Test results taken from patent US20250353853A1, “FLAVIVIRUS INHIBITORS” (IRBM S.P.A., priority 2022, published 2025).
Where a name gives a salt, the structure may show the parent alone. Read-outs that look alike come from different tables or passages of the source.

Columns and labels:
[1] = target: West Nile Virus (WNV) NS2B-NS3 protease (West Nile virus (WNV), UniProt P06935); assay: WNV Protease Inhibition Assay; assay type: biochemical
From the text: WNV Protease Inhibition Assay

[2] = system: ZIKV replicon in Vero cells; assay: ZIKV Replication Inhibition Assay (replicon, NanoLuc); conditions: Zika virus, Vero, 72 h, read-out: Zika Replicon EC50
[3] = 2 nM protease, 10 μM pERTKR-AMC substrate, read-out: WNV Protease IC50

Sequence of West Nile Virus (WNV) NS2B-NS3 protease (P06935 1502-1679 limits assumed): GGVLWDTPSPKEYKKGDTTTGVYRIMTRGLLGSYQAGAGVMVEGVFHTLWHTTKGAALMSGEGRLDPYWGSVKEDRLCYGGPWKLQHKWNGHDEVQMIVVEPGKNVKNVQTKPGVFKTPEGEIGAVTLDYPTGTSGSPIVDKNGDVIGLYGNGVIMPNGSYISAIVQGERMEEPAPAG
Sequence of West Nile Virus (WNV) NS2B-NS3 protease (P06935 1371-1501 partner limits assumed): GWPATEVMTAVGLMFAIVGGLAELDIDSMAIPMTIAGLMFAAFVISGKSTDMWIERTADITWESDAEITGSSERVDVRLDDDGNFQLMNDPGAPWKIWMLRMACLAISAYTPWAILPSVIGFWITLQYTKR

SMILES | IC50 [1, 3] [nM] | EC50 [2] [nM] | IC50 [1] [nM] | IC50 ([1]; read-out: WNV Protease IC50, 2 nM protease, 10 μM pERTKR-AMC substrate) [nM]
O=C([N-]c1c[n+](Cc2ccc(Br)cc2)no1)Nc1cccc(C(F)(F)F)c1 [Example 19, (3-(4-bromobenzyl)-1,2,3-oxadiazol-3-ium-5-yl)((3-(trifluoromethyl)phenyl)carbamoyl)amide] | < 100 | 100 to 1000 |  | 
O=C([N-]c1c[n+](Cc2ccc(-c3cccnc3)cc2)no1)Nc1cccc(C(F)(F)F)c1 [Example 22, (3-(4-(pyridin-3-yl)benzyl)-1,2,3-oxadiazol-3-ium-5-yl)((3-(trifluoromethyl)phenyl)carbamoyl)amide] |  | 100 to 1000 | 100 to 1000 | 
Cn1cc(-c2ccc(C[n+]3cc([N-]C(=O)Nc4cccc(C(F)(F)F)c4)on3)cc2)cn1 [Example 23, (3-(4-(1-methyl-1H-pyrazol-4-yl)benzyl)-1,2,3-oxadiazol-3-ium-5-yl)((3-(trifluoromethyl)phenyl)carbamoyl)amide] |  | 100 to 1000 | 100 to 1000 | 
O=C([N-]c1c[n+](Cc2ccc(-c3cncnc3)cc2)no1)Nc1cccc(C(F)(F)F)c1 [Example 26, (3-(4-(Pyrimidin-5-yl)benzyl)-1,2,3-oxadiazol-3-ium-5-yl)((3-(trifluoromethyl)phenyl)carbamoyl)amide] |  | 100 to 1000 | 100 to 1000 | 
O=C([N-]c1c[n+](Cc2ccc(-c3ccncc3)cc2)no1)Nc1cccc(C(F)(F)F)c1 [Example 39, (3-(4-(pyridin-4-yl)benzyl)-1,2,3-oxadiazol-3-ium-5-yl)((3-(trifluoromethyl)phenyl)carbamoyl)amide] |  | 100 to 1000 | 100 to 1000 | 
O=C([N-]c1c[n+]([C@@H](Cc2ccccc2)CN2CCCC2)no1)Nc1cccc(C(F)(F)F)c1 [Example 40, (S)-(3-(1-phenyl-3-(pyrrolidin-1-yl)propan-2-yl)-1,2,3-oxadiazol-3-ium-5-yl)((3-(trifluoromethyl)phenyl)carbamoyl)amide] |  | 1000 to 20000 | 1000 to 20000 | 
COc1ncc(-c2ccc(C[n+]3cc([N-]C(=O)Nc4cccc(C(F)(F)F)c4)on3)cc2)cn1 [Example 41, (3-(4-(2-methoxypyrimidin-5-yl)benzyl)-1,2,3-oxadiazol-3-ium-5-yl)((3-(trifluoromethyl)phenyl)carbamoyl)amide] | < 100 | 100 to 1000 |  | 
O=C([N-]c1c[n+](Cc2ccc(-c3cnccn3)cc2)no1)Nc1cccc(C(F)(F)F)c1 [Example 42, (3-(4-(pyrazin-2-yl)benzyl)-1,2,3-oxadiazol-3-ium-5-yl)((3-(trifluoromethyl)phenyl)carbamoyl)amide] |  | 100 to 1000 | 100 to 1000 | 
O=C([N-]c1c[n+](C(c2ccccc2)C(F)(F)F)no1)Nc1cccc(C(F)(F)F)c1 (stereo not shown) [Example 44, (3-(2,2,2-trifluoro-1-phenylethyl)-1,2,3-oxadiazol-3-ium-5-yl)((3-(trifluoromethyl)phenyl)carbamoyl)amide] |  | > 20000 | 1000 to 20000 | 
O=C([N-]c1c[n+]([C@@H](CO)Cc2ccccc2)no1)Nc1cccc(C(F)(F)F)c1 [Example 45] |  |  |  | 1000 to 20000
O=C([N-]c1c[n+](Cc2cccc(Br)c2)no1)Nc1cccc(C(F)(F)F)c1 [Example 46, (3-(3-bromobenzyl)-1,2,3-oxadiazol-3-ium-5-yl)((3-(trifluoromethyl)phenyl)carbamoyl)amide] |  | 1000 to 20000 | 100 to 1000 | 
O=C([N-]c1c[n+](Cc2ccc(I)cc2)no1)Nc1cccc(C(F)(F)F)c1 [Example 47, (3-(4-iodobenzyl)-1,2,3-oxadiazol-3-ium-5-yl)((3-(trifluoromethyl)phenyl)carbamoyl)amide] |  | 100 to 1000 | 100 to 1000 | 
O=C([N-]c1c[n+](Cc2ccc(-c3cnoc3)cc2)no1)Nc1cccc(C(F)(F)F)c1 [Example 48, (3-(4-(isoxazol-4-yl)benzyl)-1,2,3-oxadiazol-3-ium-5-yl)((3-(trifluoromethyl)phenyl)carbamoyl)amide] |  | 100 to 1000 | 100 to 1000 | 
O=C([N-]c1c[n+](Cc2cccc(-c3cncnc3)c2)no1)Nc1cccc(C(F)(F)F)c1 [Example 50, (3-(3-(Pyrimidin-5-yl)benzyl)-1,2,3-oxadiazol-3-ium-5-yl)((3-(trifluoromethyl)phenyl)carbamoyl)amide] |  | 100 to 1000 | 100 to 1000 | 
O=C([N-]c1c[n+](Cc2cccc(-c3cccnc3)c2)no1)Nc1cccc(C(F)(F)F)c1 [Example 51, (3-(3-(pyridin-3-yl)benzyl)-1,2,3-oxadiazol-3-ium-5-yl)((3-(trifluoromethyl)phenyl)carbamoyl)amide] |  | 100 to 1000 | 100 to 1000 | 
Cn1cc(-c2cccc(C[n+]3cc([N-]C(=O)Nc4cccc(C(F)(F)F)c4)on3)c2)cn1 [Example 52, (3-(3-(1-methyl-1H-pyrazol-4-yl)benzyl)-1,2,3-oxadiazol-3-ium-5-yl)((3-(trifluoromethyl)phenyl)carbamoyl)amide] |  | 100 to 1000 | 100 to 1000 | 

SMILES | IC50 [1, 3] [nM] | EC50 [2] [nM] | IC50 [1] [nM] | IC50 ([1]; read-out: WNV Protease IC50, 2 nM protease, 10 μM pERTKR-AMC substrate) [nM]
COc1ncc(-c2cccc(C[n+]3cc([N-]C(=O)Nc4cccc(C(F)(F)F)c4)on3)c2)cn1 [Example 53, (3-(3-(2-methoxypyrimidin-5-yl)benzyl)-1,2,3-oxadiazol-3-ium-5-yl)((3-(trifluoromethyl)phenyl)carbamoyl)amide] |  | 100 to 1000 | 100 to 1000 | 
O=C([N-]c1c[n+](Cc2ccc(I)cc2)no1)Nc1cncc(C(F)(F)F)c1 [Example 55, (3-(4-iodobenzyl)-1,2,3-oxadiazol-3-ium-5-yl)((5-(trifluoromethyl)pyridin-3-yl)carbamoyl)amide] |  | 100 to 1000 | 100 to 1000 | 
O=C([N-]c1c[n+](Cc2ccc(-c3cncnc3)cc2)no1)Nc1cncc(C(F)(F)F)c1 [Example 57, (3-(4-(pyrimidin-5-yl)benzyl)-1,2,3-oxadiazol-3-ium-5-yl)((5-(trifluoromethyl)pyridin-3-yl)carbamoyl)amide] | < 100 | < 100 |  | 
Cc1noc(C)c1-c1ccc([C@@H](CN)[n+]2cc([N-]C(=O)Nc3cccc(C(F)(F)F)c3)on2)cc1 [Example 116, (S)-(3-(2-amino-1-(4-(3,5-dimethylisoxazol-4-yl)phenyl)ethyl)-1,2,3-oxadiazol-3-ium-5-yl)((3-(trifluoromethyl)phenyl)carbamoyl)amide formate] |  | 100 to 1000 |  | 
O=C([N-]c1c[n+](Cc2ccc(-c3cnn(C4CCNCC4)c3)nc2)no1)Nc1cccc(C(F)(F)F)c1 [Example 117, (3-((6-(1-(piperidin-4-yl)-1H-pyrazol-4-yl)pyridin-3-yl)methyl)-1,2,3-oxadiazol-3-ium-5-yl)((3-(trifluoromethyl)phenyl)carbamoyl)amide] |  | 1000 to 20000 |  | 
Cc1ncn(C)c1-c1ccc(C[n+]2cc([N-]C(=O)Nc3cccc(C(F)(F)F)c3)on2)nc1 [Example 118, (3-((5-(1,4-dimethyl-1H-imidazol-5-yl)pyridin-2-yl)methyl)-1,2,3-oxadiazol-3-ium-5-yl)((3-(trifluoromethyl)phenyl)carbamoyl)amide] |  | 100 to 1000 |  | 
O=C([N-]c1c[n+](Cc2ccc(-c3cccc4c3CNC4)cn2)no1)Nc1cccc(C(F)(F)F)c1 [Example 119, (3-((5-(isoindolin-4-yl)pyridin-2-yl)methyl)-1,2,3-oxadiazol-3-ium-5-yl)((3-(trifluoromethyl)phenyl)carbamoyl)amide] |  | 100 to 1000 |  | 
O=C([N-]c1c[n+](Cc2ccc(-c3cnn(C4CCNCC4)c3)cn2)no1)Nc1cccc(C(F)(F)F)c1 [Example 120, (3-((5-(1-(piperidin-4-yl)-1H-pyrazol-4-yl)pyridin-2-yl)methyl)-1,2,3-oxadiazol-3-ium-5-yl)((3-(trifluoromethyl)phenyl)carbamoyl)amide] |  | 1000 to 20000 |  | 
NCc1ccccc1-c1ccc(C[n+]2cc([N-]C(=O)Nc3cccc(C(F)(F)F)c3)on2)nc1 [Example 121, (3-((5-(2-(aminomethyl)phenyl)pyridin-2-yl)methyl)-1,2,3-oxadiazol-3-ium-5-yl)((3-(trifluoromethyl)phenyl)carbamoyl)amide] |  | 100 to 1000 |  | 
O=C([N-]c1c[n+](Cc2ccc(B(O)O)cn2)no1)Nc1cccc(C(F)(F)F)c1 [Example 122, (3-((5-boronopyridin-2-yl)methyl)-1,2,3-oxadiazol-3-ium-5-yl)((3-(trifluoromethyl)phenyl)carbamoyl)amide] |  | > 20000 |  | 
Cc1ncnc(OCCN(C)C)c1-c1ccc(C[n+]2cc([N-]C(=O)Nc3cccc(C(F)(F)F)c3)on2)nc1 [Example 123, ((3-((5-(4-(2-(metheyliumyl(methyl)ammonio)ethoxy)-6-methylpyrimidin-5-yl)pyridin-2-yl)methyl)-1,2,3-oxadiazol-3-ium-5-yl)((3-(trifluoromethyl)phenyl)carbamoyl)amide) (2,2,2-trifluoroacetate)] |  | 100 to 1000 |  | 
O=C([N-]c1c[n+](Cc2ccc(-c3cnn4c3CNCC4)cn2)no1)Nc1cccc(C(F)(F)F)c1 [Example 124, (3-((5-(4,5,6,7-tetrahydropyrazolo[1,5-a]pyrazin-3-yl)pyridin-2-yl)methyl)-1,2,3-oxadiazol-3-ium-5-yl)((3-(trifluoromethyl)phenyl)carbamoyl)amide] |  | 100 to 1000 |  | 
Cc1noc(C)c1-c1cnc(C[n+]2cc([N-]C(=O)Nc3cccc(C(F)(F)F)c3)on2)cn1 [Example 169, (3-((5-(3,5-dimethylisoxazol-4-yl)pyrazin-2-yl)methyl)-1,2,3-oxadiazol-3-ium-5-yl)((3-(trifluoromethyl)phenyl)carbamoyl)amide] |  | 100 to 1000 |  | 
Cc1noc(C)c1-c1ccc(C[n+]2cc([N-]C(=O)Nc3nccc(C(F)(F)F)n3)on2)nc1 [Example 171, (3-((5-(3,5-dimethylisoxazol-4-yl)pyridin-2-yl)methyl)-1,2,3-oxadiazol-3-ium-5-yl)((4-(trifluoromethyl)pyrimidin-2-yl)carbamoyl)amide] |  | 1000 to 20000 |  | 
Cc1noc(C)c1-c1ncc(C[n+]2cc([N-]C(=O)Nc3cccc(C(F)(F)F)c3)on2)cn1 [Example 174, (3-((2-(3,5-dimethylisoxazol-4-yl)pyrimidin-5-yl)methyl)-1,2,3-oxadiazol-3-ium-5-yl)((3-(trifluoromethyl)phenyl)carbamoyl)amide] |  | 100 to 1000 |  | 
